Laboratory results taken from US20150352134A1, “COMPOSITION FOR TOPICAL SKIN APPLICATION CONTAINING GINSENOSIDE F2 DERIVED FROM HYDROPONIC GINSENG” (AMOREPACIFIC CORPORATION, priority 2012, published 2015).

Experiments:
[1] = tested on: tyrosinase; assay: Tyrosinase inhibitory effect; type: biochemical, mushrooms; conditions: 37° C., absorbance 475 nm
Description: The tyrosinase as used herein is an enzyme extracted from mushrooms and purchased from Sigma-Aldrich. Firstly, tyrosine as a substrate is dissolved in distilled water to prepare a 0.3 mg/mL solution, which is added dropwise to a test tube at an amount of 1.0 mL each time. To the solution are added 1.0 mL of a potassium phosphate buffer solution (0.1 mol, pH 6.8) and 0.7 mL of distilled water.
0.2 mL of the sample solution is added to the reactant solution and then allowed to have a reaction in a thermostat container at 37° C. for 10 minutes. In this regards, the control is the reactant solution containing 0.2 mL of a solvent alone in place of each sample solution. The positive control uses ascorbic acid. 0.1 mL of a 2500 unit/mL tyrosinase solution is added to the reactant solution, which is then allowed to have a reaction again in a thermostat container at 37° C. for 10 minutes. The test tube filled with the reactant solution is put into an ice water to cause quenching and thus stop the reaction. The absorbance at 475 nm is measured with a photoelectric spectrophotometer. The tyrosinase inhibitory effect is calculated according to the following mathematical formula 3.

[2] = biological target: T1, elastase type III (Sus scrofa, UniProt P00772); assay: Elastase inhibitory effect; type: biochemical; conditions: EGCG 250 μM; 25° C., 15 minutes, absorbance 415 nm
T1 construct: purchased Sigma-Aldrich E0127
Description: The elastase inhibitory function of the ginsenoside F2 is measured in comparison with that of EGCG. The elastase and the substrate used herein are purchased from Sigma-Aldrich, U.S.A. (Cat. No. E0127).
The elastase inhibitory function is measured according to the following method.
In a 96-well plate, ginsenoside F2 (200 μL) and 50 μL of a 20 μg/mL elastase type III solution are mixed with a […] tris-HCL buffer solution (pH 8.0). The positive control is EGCG 250 μM, and the negative control which is a non-treated group is distilled water. Then, 100 μL of 0.4514 mg/mL N-succinyl-ala-ala-ala-p-nitroanilide prepared with the buffer solution is added to the mixture and allowed to react at 25° C. for 15 minutes. After completion of the reaction, the absorbance at 415 nm was measured. The blank test is performed in the same manner as described above to achieve calibration verification.
The elastase inhibitory function is calculated according to the following mathematical formula 1, and the results are presented in Table 2.
Elastase inhibition rate (%)={1−(C−D)/(A−B)}×100 [Mathematical Formula 1]
A: Absorbance at 415 nm with enzyme and no test substance.
B: Absorbance at 415 nm with no test substance and no enzyme.
C: Absorbance at 415 nm with test substance and enzyme.
D: Absorbance at 415 nm with test substance and no enzyme.

[3] = tested on: MITF; assay: MITF expression in melanocytes (Western Blot); type: cell-based; conditions: 501me1 cell line, IBMX 100 μM, ginsenoside 10 ppm
Description: (§1) 501me1 cell line is injected in each well of a 6-well microtiter plate at a rate of 500,000 cells/well. The cell line in each well is treated with 0.1% of DMSO as the negative control group, 100 μM of IBMX as the positive control group, or ginsenoside 10 ppm of F2 as the test group, and cultured at 37° C. for 24 hours, 48 hours, or 72 hours, to obtain proteins. The proteins thus obtained are subjected to Western Blot using MITF and tyrosinase antibodies. Protein extraction and Western Blot are performed using the standard methods known in the art.

[4] = tested on: Melanin-a cells; assay: Melanogenesis promotion in Melanin-a cells; type: cell-based; conditions: 100 μM, 3 days; DMSO (0.1%) = 100
Description: Melanin-a cells are injected in a 24-well microtiter plate at a rate of 50,000 cells per well with an RPMI medium containing 5% fetal bovine serum, 100 IU penicillin G, and 0.2 μM TPA. Next day, the cells are treated with ginsenoside F2 as a test substance independently at the final concentration of 10 ppm or 50 ppm. The negative control is treated with 0.1% DMSO, and the positive control is treated with 100 μM IBMX. Then, the cells are cultured at 37° C. for 3 days. The wells of the plate are washed with PBS, and 100 μl of 1N NaOH is added to each well to dissolve melanin in the cells. The absorbance of the dissolved melanin is measured at 405 nm with a microplate reader. The effect of the ginsenoside F2 to promote melanogenesis is evaluated in comparison with that of the control groups.

[5] = tested on: tyrosinase; assay: Tyrosinase expression in melanocytes (Western Blot); type: cell-based; conditions: 501me1 cell line, IBMX 100 μM, ginsenoside 10 ppm
Description: as §1

[6] = tested on: mouse with vitiligo (C57b1/6-Mitf^mi-vit); assay: Grey hair prevention: melanin in newly grown hair of mouse with vitiligo; type: in vivo; conditions: applied twice a day, about 3 weeks, 50 mM IBMX, 2.5% ginsenoside F2
Description: A mouse with vitiligo (C57b1/6-Mitf^mi-vit) is purchased from The Jackson Lab in U.S.A. The testing method on the grey hair inhibitory effect using a mouse with lots of grey hair is carried out as follows. A 12-week old mouse is subjected to depilation on the back side. The area of the depilated region is controlled to be the same to every object. From the next day of the depilation, the grey hair inhibitory substances are applied on the depilated region twice a day. The vehicle for the grey hair inhibitory substances is the mixture of EtOH, 1,3-BG and DW (3:2:5 in volume ratio). The liquid containing the vehicle alone is the negative control, the liquid containing the vehicle in combination with 50 mM IBMX is the positive control, and the liquid containing the vehicle in combination with 2.5% ginsenoside F2 is the test group. When the difference in the grey hair inhibitory effect between the substances is visually recognizable in about 3 weeks, the newly grown hair is collected to measure the quantity of melanin produced in the hair. The quantity of melanin in the hair is measured using esperase (Novozyme) strains that are a protein hydrolase. Esperase is dissolved in a buffer solution (50 mM tris-HCl, 5 mM DTT, pH 9.3) to a concentration of 1 NPU/ml to prepare a reaction buffer. 5 mg of mouse hair is put in 1 ml of the reaction buffer, which is stirred at a speed of 1,000 rpm at 37° C. for 13 hours to cause the reaction and then subjected to a momentary centrifugal isolation to separate the reactant solution from hair. The reactant solution thus obtained is placed in each well of a 96-well plate, and the absorbance at 405 nm is measured to determine the amount of melanin in the reactant solution. When a mouse with vitiligo and lots of grey hair is treated with the negative control substance, the positive control substance, or the test substance, the efficacies are visually observed, and the melanin in hair is quantitatively analyzed.

[7] = tested on: B16/F10 melanoma cells; assay: Melanogenesis inhibition in B16/F10 melanoma cells; type: cell-based; conditions: sample containing 0.001 wt. % of test substance; 3-day cultivation
Description: As a test substance, a sample containing 0.001 wt. % of ginsenoside F2 or kojic acid is added to a culture medium of B16/F10 melanoma cells (available from Korean Cell Line Bank) at a predetermined concentration. The culture medium is eliminated after 3-day cultivation. The cells are washed with PBS and dissolved in 1N NaOH. Then, the absorbance at 405 nm is measured. The control is the cells not treated with any test substance. In comparison with the melanin content in the control group, the inhibitory ability of each test substance against melanogenesis is measured. […] [formula]

[8] = tested on: potassium ion channels (KATP channels); assay: KATP channel opener test: recovery of NIH3T3 proliferation blocked by tolbutamide (WST-1); type: cell-based, mouse; conditions: 10 μM minoxidil after 2.5 mM tolbutamide, 48 hours
From the text: Minoxidil, a treatment for hair loss, is known as a potassium ion channel opener (KATP channel opener) potentially acting on mitochondria and a representative drug used for treatment of androgenic alopecia (hair loss). A testing method used to evaluate the action of minoxidil includes treating with tolbutamide (SIGMA-ALDRICH, T0891) blocking the potassium ion channels (KATP channels) in fibroblasts constituting the corium of scalp to inhibit cell proliferation and then opening the potassium ion channels (KATP channels) to resume the cell proliferation. In order to evaluate the function of the composition of the present invention as a KATP channel opener, the present invention uses a mouse embryonic fibroblast cell line, NIH3T3, as fibroblasts. The cell line is obtained by naturally immortalizing a fibroblast cell line isolated from an NIH Swiss mouse embryo with 3T3 protocol. The cell line is cultured with DMEM (Dulbecco's modified eagle's medium, Gibco BRL, Gaithersburg, Md., U.S.A.) containing 10% FBS (Fetal Bovine Serum) in an incubator under the conditions of 5% CO2 and 37° C. for 24 hours.

[9] = biological target: T2, 5α-reductase (Homo sapiens, UniProt P31213); assay: 5α-reductase activity inhibition, conversion of [14C]testosterone to DHT in HEK293-5α R2 cells; type: cell-based; conditions: 2 hours
T2 construct: 3×FLAG; expressed in transfected cells; host or cells: HEK293
T2 sequence (P31213 1-254): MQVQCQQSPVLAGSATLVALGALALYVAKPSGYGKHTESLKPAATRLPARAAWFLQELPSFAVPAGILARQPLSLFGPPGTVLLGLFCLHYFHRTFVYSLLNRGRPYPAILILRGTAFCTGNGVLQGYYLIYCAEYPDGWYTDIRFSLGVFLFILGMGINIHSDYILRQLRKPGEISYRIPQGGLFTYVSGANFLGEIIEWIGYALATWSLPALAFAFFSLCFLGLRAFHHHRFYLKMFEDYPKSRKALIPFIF
Description: In order to evaluate the inhibitory effect on the activity of 5α-reductase, the conversion rate from [^14C]testosterone to [^14C]dihydrotestosterone (DHT) in HEK293-5α R2 cells is measured. P3×FLAG-CMV-5α R2 is transduced into HEK293 cells, which are cultured in a 24-well plate at a rate of 2.5×10^5 cells per well (Park et al., 2003, JDS. Vol. 31, pp. 191-98). The next day, the used culture medium is replaced with a new culture medium containing an enzyme substrate and an inhibitor. The substrate of the culture medium is 0.05 μCi [^14C]testosterone (Amersham Pharmacia Biotech, UK).
To evaluate the degree of 5α-reductase activity inhibition, the cells are treated with ginsenoside F2 and then cultured in a 5% CO2 incubator at 37° C. for 2 hours. In this regard, the negative control is the group not treated with ginsenoside F2, while the positive control is the group treated with finasteride. Subsequently, the culture medium is collected to extract steroids with 800 μl of ethylacetate, and the supernatant organic solvent phase is isolated and dried. The residue is dissolved in 50 μl of ethylacetate and developed on silica plastic sheet kieselgel 60 F254 using an ethylacetate-hexane (1:1) solvent.
The plastic sheet is dried out in the air and measured in regards to the abundance of isotope using a bath system. The dry plastic sheet together with an X-ray film is put in a bath cassette. After one week, the abundance of isotope of testosterone and dihydrotestosterone remaining on the film is measured to calculate the conversion rate and the inhibition rate according to the following mathematical formulas 5 and 6, respectively.

[10] = tested on: collagenase (MMP-1); assay: Collagenase (MMP-1) expression in human fibroblasts (ELISA); type: cell-based; conditions: 10 μg/mL for 24 hours; not treated control = 100
Description: The ginsenoside F2 of the present invention is measured in regards to the inhibitory effect on the generation of collagenase in comparison with retinoic acid. […] The human fibroblasts are treated with ginsenoside F2 or retinoic acid at a concentration of 10 μg/mL for 24 hours. Then, the cell culture medium is collected. The production yield of collagenase in the collected cell culture medium is measured using a collagenase measurement instrument commercially available (Catalog #. RPN 2610, USA Amersham Pharma Inc.). Firstly, the collected cell culture medium is put in each well of a 96-well plate uniformly coated with the primary collagenase antibodies and then subjected to antigen-antibody reactions in a thermostat container for 3 hours. After 3 hours, the secondary collagenase antibodies coupled to the chromophore groups are put in each well of the 96-well plate and then allowed to react for more 15 minutes. […] The intensity of yellowness in the reaction mixture is varied depending on the progress of the reaction. The absorbance of the yellow-colored 96-well plate is measured at 405 nm with a spectrophotometer, and the expression level of collagenase is calculated according to the following mathematical formula 2. In this regard, the absorbance of the cell culture medium collected from the group not treated with the composition of the present invention is considered as the absorbance of the control. [formula]

[11] = tested on: procollagen type (I) in fibroblasts; assay: Collagen biosynthesis in fibroblasts (procollagen type (I) ELISA); type: cell-based; conditions: 10 ng/ml, 24 hours; non-treated group = 100%
Description: The ginsenoside F2 of the present invention is compared with TGF-β in regards to the effect of promoting biosynthesis of collagen. Firstly, fibroblasts are seeded in 24 wells at a rate of 10^5 per well and cultured until the growth reaches 90%. The fibroblasts are cultured in a non-serum culture medium for 24 hours, treated with each 10 ng/ml of ginsenoside F2 or TGF-β dissolved in the non-serum culture medium, and then cultured in a CO2 incubator for 24 hours. The supernatant liquid is collected to determine an increase or decrease of procollagen using a procollagen type (I) ELISA kit. The collagen synthesis ability is denoted with respect to 100% for the non-treated group.

T1 sequence (P00772 27-266): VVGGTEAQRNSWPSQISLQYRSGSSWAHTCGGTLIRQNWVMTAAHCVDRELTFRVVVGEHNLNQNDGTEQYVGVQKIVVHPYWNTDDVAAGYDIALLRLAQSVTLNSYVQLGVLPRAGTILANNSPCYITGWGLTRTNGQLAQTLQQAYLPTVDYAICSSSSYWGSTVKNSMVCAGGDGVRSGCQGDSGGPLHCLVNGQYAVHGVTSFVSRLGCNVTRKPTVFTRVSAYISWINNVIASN

**Q.** `O=C1O[C@H]([C@@H](O)CO)C(O)=C1O` [Ascorbic acid, ascorbic acid] was tested. Which “Tyrosinase inhibition rate (%)” value [1] did it give?
**A.** 52%

**Q.** `O=C(O[C@@H]1Cc2c(O)cc(O)cc2O[C@@H]1c1cc(O)c(O)c(O)c1)c1cc(O)c(O)c(O)c1` [EGCG] was tested. Which “Inhibition rate (%) (elastase)” value [2] did it give?
**A.** 65%

**Q.** What does the source list for `CC(C)Cn1c(=O)n(C)c(=O)c2[nH]cnc21` [IBMX]?
**A.** MITF (Western Blot, in comparison with 100 of the negative control group) ([3]; 24 hrs): 121; MITF (Western Blot, in comparison with 100 of the negative control group) ([3]; 48 hrs): 98; MITF (Western Blot, in comparison with 100 of the negative control group) ([3]; 72 hrs): 224; Yield of Melanin (%) [4]: 120%; Tyrosinase (Western Blot, in comparison with 100 of the negative control group) ([5]; 24 hrs): 160; Tyrosinase (Western Blot, in comparison with 100 of the negative control group) ([5]; 48 hrs): 149; Tyrosinase (Western Blot, in comparison with 100 of the negative control group) ([5]; 72 hrs): 298; Amount of melanin (%) with respect to control [6]: 105.9%

**Q.** For `O=c1cc(CO)occ1O` [Kojic acid, kojic acid], which “Melanogenesis inhibition rate (%)” value [7] is on record?
**A.** 53%

**Q.** With `Nc1cc(N2CCCCC2)nc(N)[n+]1[O-]` [Minoxidil] as the compound, how does the “Cell proliferation ability (%)” value [8] read?
**A.** 132%

**Q.** Which results are given for `CC(C)(C)NC(=O)[C@H]1CC[C@H]2[C@@H]3CC[C@H]4NC(=O)C=C[C@]4(C)[C@H]3CC[C@]12C` [Positive control, finasteride, reference compound]?
**A.** Inhibition rate (%) ([9]; 5α-reductase activity): 42.5%; Conversion rate (%) ([9]; testosterone to dihydrotestosterone): 27.6%

**Q.** How did the “Collagenase expression level(%)” value [10] turn out when `CC1=C(/C=C/C(C)=C/C=C/C(C)=C/C(=O)O)C(C)(C)CCC1` [Retinoic acid, retinoic acid] was run?
**A.** 75%

**Q.** TGF-β was tested. Which “Collagen synthesis ability (%)” value [11] did it give?
**A.** 183.5%
